Results published in ChEMBL document CHEMBL3525973, “Quantitative prediction of human intestinal glucuronidation effects on intestinal availability of UDP-glucuronosyltransferase substrates using in vitro data” (Drug Metab Dispos, 2012).

Columns and labels:
[1] = Intrinsic clearance in human intestinal microsomes assessed UGT-mediated glucuronidation clearance
[2] = molecular target: T1, UDP-glucuronosyltransferase 2B7 (Homo sapiens, UniProt P16662); assay: Activity of human UGT2B7 expressed in insect cells assessed as reduction in compound level after 30 mins; type: ADME; details: 0.5 h
T1 sequence (P16662 whole entry): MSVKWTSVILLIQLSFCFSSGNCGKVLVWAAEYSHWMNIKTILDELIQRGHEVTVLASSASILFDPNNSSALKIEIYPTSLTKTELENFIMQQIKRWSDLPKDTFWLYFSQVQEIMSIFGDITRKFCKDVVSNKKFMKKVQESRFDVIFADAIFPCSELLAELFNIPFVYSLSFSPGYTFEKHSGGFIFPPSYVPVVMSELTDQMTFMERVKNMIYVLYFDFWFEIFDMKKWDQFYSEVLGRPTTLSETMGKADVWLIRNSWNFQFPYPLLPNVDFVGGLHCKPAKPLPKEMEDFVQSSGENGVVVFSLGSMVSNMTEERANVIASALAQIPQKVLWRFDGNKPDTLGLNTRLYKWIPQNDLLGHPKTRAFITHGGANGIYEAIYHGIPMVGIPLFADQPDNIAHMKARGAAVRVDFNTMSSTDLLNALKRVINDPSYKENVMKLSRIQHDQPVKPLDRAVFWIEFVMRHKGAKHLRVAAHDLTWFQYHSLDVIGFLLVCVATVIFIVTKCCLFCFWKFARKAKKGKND

[3] = Bioavailability in human; type: ADME, organism-based; details: in vivo
[4] = Intrinsic clearance in human intestinal microsomes assessed CYP450-mediated glucuronidation clearance; details: microsomes
[5] = Unbound fraction during UGT-mediated glucuronidation in human intestinal microsomes
[6] = Apparent permeability by PAMPA method
in vitro = details: human, blood and plasma
Description: Ratio of drug level in blood to plasma in human

[7] = Unbound intrinsic clearance in human intestinal microsomes assessed CYP450-mediated glucuronidation clearance
[8] = Unbound intrinsic clearance in human intestinal microsomes assessed UGT-mediated glucuronidation clearance
[9] = molecular target: T2, UDP-glucuronosyltransferase 1A7 (Homo sapiens, UniProt Q9HAW7); assay: Activity of human UGT1A7 expressed in insect cells assessed as reduction in compound level after 30 mins; type: ADME; details: 0.5 h
T2 sequence (Q9HAW7 whole entry): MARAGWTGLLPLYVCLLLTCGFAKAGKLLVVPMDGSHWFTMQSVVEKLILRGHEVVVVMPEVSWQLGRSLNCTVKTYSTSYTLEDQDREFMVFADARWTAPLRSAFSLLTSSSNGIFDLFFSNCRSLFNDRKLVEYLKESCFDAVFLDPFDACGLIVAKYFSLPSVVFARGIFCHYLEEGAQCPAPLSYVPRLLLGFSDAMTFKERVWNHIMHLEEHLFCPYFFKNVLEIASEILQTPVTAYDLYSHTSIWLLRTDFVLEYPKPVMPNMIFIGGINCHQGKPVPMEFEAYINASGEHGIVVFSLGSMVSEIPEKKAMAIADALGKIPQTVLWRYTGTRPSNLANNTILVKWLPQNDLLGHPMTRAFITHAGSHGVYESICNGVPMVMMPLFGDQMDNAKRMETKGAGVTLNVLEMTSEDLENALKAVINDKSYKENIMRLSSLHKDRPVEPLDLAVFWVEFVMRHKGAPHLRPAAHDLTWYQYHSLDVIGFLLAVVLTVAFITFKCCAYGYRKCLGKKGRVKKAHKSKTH

[10] = molecular target: T3, UDP-glucuronosyltransferase 1A1 (Homo sapiens, UniProt P22309); assay: Activity of human UGT1A1 expressed in insect cells assessed as reduction in compound level after 30 mins; type: ADME; details: 0.5 h
T3 sequence (P22309 whole entry): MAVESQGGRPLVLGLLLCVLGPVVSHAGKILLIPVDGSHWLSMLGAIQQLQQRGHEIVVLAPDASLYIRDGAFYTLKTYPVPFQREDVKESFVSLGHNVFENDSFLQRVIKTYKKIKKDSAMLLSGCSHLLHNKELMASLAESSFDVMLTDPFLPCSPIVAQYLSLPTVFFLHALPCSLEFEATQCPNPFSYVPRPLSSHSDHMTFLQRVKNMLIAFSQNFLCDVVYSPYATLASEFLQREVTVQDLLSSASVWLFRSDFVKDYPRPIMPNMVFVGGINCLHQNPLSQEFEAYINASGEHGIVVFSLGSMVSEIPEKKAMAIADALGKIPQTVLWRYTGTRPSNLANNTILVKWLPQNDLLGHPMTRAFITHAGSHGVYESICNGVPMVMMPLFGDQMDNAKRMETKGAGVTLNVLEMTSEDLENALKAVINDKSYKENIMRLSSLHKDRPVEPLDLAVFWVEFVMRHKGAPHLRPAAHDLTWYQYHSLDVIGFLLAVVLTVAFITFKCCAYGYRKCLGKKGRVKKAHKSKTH

[11] = molecular target: T4, UDP-glucuronosyltransferase 1A9 (Homo sapiens, UniProt O60656); assay: Activity of human UGT1A9 expressed in insect cells assessed as reduction in compound level after 30 mins; type: ADME; details: 0.5 h
T4 sequence (O60656 whole entry): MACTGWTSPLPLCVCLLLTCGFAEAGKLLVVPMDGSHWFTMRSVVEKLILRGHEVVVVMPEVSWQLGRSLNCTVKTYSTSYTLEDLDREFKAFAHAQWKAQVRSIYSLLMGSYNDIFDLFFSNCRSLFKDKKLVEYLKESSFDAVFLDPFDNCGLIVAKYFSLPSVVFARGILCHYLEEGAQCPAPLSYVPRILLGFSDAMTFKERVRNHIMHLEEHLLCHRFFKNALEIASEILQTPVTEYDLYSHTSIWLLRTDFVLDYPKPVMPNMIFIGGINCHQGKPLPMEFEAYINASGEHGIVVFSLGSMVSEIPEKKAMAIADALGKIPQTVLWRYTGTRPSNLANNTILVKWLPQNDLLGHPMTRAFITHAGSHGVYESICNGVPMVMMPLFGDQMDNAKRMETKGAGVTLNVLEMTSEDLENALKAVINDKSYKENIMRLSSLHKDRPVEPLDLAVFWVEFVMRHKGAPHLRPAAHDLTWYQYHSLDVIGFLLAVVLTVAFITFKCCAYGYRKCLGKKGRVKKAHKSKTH

[12] = molecular target: T5, UDP-glucuronosyltransferase 2B15 (Homo sapiens, UniProt P54855); assay: Activity of human UGT2B15 expressed in insect cells assessed as reduction in compound level after 30 mins; type: ADME; details: 0.5 h
T5 sequence (P54855 whole entry): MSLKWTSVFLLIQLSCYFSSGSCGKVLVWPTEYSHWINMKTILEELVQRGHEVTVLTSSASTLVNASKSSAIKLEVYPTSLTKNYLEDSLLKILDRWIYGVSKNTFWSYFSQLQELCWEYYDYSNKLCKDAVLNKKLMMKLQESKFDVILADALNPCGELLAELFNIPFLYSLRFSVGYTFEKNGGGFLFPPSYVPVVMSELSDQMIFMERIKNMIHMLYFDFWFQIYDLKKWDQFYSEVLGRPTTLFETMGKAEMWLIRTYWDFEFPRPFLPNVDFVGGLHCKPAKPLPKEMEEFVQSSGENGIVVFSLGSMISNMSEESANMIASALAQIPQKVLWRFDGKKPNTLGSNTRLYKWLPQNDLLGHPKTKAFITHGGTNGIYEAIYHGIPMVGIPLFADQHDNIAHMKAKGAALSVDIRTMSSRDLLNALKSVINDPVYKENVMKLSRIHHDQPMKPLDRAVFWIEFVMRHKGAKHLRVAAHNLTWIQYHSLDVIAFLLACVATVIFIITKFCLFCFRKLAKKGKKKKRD

clinical = details: human, in vivo

Row | microsomal CLint ([1]; microsomes) [µL/min/mg] | Drug metabolism [2] | bioavailability [3] [%] | CL [4] | fraction unbound ([5]; microsomes) | Papp [6] [×10⁻⁶ cm/s] | blood plasma ratio (in vitro) | CL free [7] | CL free [8] [µL/min/mg] | Drug metabolism [9] | microsomal CLint ([1]; intestinal microsomes) [µL/min/mg] | fraction unbound ([5]; intestinal microsomes) | Drug metabolism [10] | Drug metabolism [11] | Drug metabolism [12] | clearance (clinical) [mL/min/kg] | Compound
1 | 17 | metabolite_detected | 100 | metabolite_not_detected | 0.97 | < 0.1 | 0.58 | metabolite_not_detected | 17.5 |  |  |  |  |  |  |  | Cc1ccc(C)c(OCCCC(C)(C)C(=O)O)c1 [GEMFIBROZIL]
2 |  | metabolite_detected |  |  |  | 14 | 0.66 |  | 176 | metabolite_detected | 155 | 0.88 | metabolite_detected | metabolite_detected | metabolite_detected | 2.2 | Cc1c(Cl)cccc1Nc1ccccc1C(=O)O [TOLFENAMIC ACID]
